Laboratory results taken from US20120101110A1, “Diaza-spiro[5.5]undecanes” (priority 2010, published 2012).

Experiments:
human orexin 2 receptors [1] = target: T1, human orexin 2 receptors (Homo sapiens, UniProt O43614); test: Calcium accumulation in cells (FLIPR), hOx2R; type: cell-based; settings: cells expressing human orexin 2 receptor; inhibition of orexin A-induced calcium accumulation; Cheng and Prusoff correction
T1 sequence (O43614 1-444): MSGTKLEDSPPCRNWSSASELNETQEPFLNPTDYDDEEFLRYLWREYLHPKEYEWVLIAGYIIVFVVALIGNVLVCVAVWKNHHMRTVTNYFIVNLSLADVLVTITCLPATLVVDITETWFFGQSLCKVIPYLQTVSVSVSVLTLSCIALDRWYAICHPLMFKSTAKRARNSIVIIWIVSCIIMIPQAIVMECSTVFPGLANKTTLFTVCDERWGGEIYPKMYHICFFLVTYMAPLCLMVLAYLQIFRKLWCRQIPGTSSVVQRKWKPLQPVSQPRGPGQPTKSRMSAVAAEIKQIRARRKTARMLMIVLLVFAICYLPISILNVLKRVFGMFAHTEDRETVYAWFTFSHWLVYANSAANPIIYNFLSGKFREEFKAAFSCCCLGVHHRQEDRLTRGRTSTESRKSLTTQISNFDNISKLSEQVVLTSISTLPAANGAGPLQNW

human orexin 1 receptors [2] = target: T2, human orexin 1 receptors (Homo sapiens, UniProt O43613); test: Radioligand binding assay ([3H]-SB649868 competition), hOx1R; settings: competition with about 1 nM [3H]-SB649868; CHO or HEK cell membranes expressing human orexin 1 receptor
T2 sequence (O43613 1-425): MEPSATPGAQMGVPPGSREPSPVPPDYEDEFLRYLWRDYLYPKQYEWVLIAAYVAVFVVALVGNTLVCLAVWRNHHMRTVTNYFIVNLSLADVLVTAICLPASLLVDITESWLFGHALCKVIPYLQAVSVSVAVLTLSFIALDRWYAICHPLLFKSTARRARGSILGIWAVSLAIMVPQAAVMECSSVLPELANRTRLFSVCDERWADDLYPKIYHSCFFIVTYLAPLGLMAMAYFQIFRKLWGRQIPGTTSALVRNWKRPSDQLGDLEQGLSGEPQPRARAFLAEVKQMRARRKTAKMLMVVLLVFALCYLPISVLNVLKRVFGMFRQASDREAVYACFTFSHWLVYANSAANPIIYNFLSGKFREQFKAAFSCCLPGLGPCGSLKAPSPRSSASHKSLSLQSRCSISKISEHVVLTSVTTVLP
How it was run: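 Membranes from hOx1R-expressing cells incubated 1 h at room temperature with about 1 nM [3H]-SB649868 and test compound, in triplicate. Buffer was 10 mM HEPES pH 7.5, 0.5% BSA, 5 mM MgCl2, 1 mM CaCl2, 0.05% tween; 10 μM almorexant defined non-specific binding. Filtration then counting of bound radioactivity; values reported as Kd.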

human orexin 1 receptors [3] = target: T2, human orexin 1 receptors; test: Calcium accumulation in cells (FLIPR), hOx1R
Procedure: Cells expressing human orexin 1 or human orexin 2 receptors, were seeded at 8,000 cells/well in 384 well black-walled clear bottom, poly-D-lysine coated plates. After 24 h, the medium was removed and cells were washed once with phosphate buffered saline and serum-deprived overnight in assay buffer (130 mM NaCl, 5.4 mM KCl, 1.8 mM CaCl2, 0.8 mM MgSO4, 0.9 mM NaH2PO4, 25 mM glucose, 20 mM HEPES, pH 7.4) containing bovine serum albumin (1% w/v).
On the day of the experiment, the cells seeded in black plates were treated with assay buffer containing the Ca^2+sensitive fluorescent dye Fluo-4-AM (2 μM), and probenecid (0.1 mM). After 1 h plates were washed twice with, and resuspended in, assay buffer containing probenecid (0.1 mM) using a multi plate washer. The plates were placed into a FLIPR II (Fluorometric Imaging Plate Reader, Molecular Devices, Sunnyvale, Calif., USA) and baseline fluorescence (fluorescence light units, FLU) was measured (5 measurements, 2 S each; laser excitation 488 nm at 0.6-1 W, CCD camera exposure 0.4 s) before addition of buffer alone (basal) or containing test compounds (either compound of formula I alone, agonist alone or agonist in the presence of various concentrations of compounds of formula I). Fluorescence measurements were then continued every 1 S for 120 S followed by every 4 S for 240 S.
Compounds of formula I were tested usually in a concentration range from 10^−9 M to 10^−5 M. In the second round, performed one hour later (to allow for equilibration), Orexin A was tested either in the absence (calibration curves, Orexin A agonist controls) or in the presence of compounds of formula I to determine antagonism.
Inhibition data is expressed in Table 2 as Ki [μM], converted by the Cheng and Prusoff correction (Ki=IC50/1+(L/EC50)), where IC50 is the 50% inhibition value determined in concentration response inhibition curves, EC50 is the half maximal activation concentration determined for orexin A in concentration response curves and L is the concentration of orexin A used in inhibition experiments performed in with a submaximal concentration of orexin A in the presence of up to 8 increasing concentrations of compound of formula I. Inhibition data is also expressed in Table 2 as % inhibition value measured at a concentration of 10 μM of selected compounds of formula I.

human orexin 2 receptors [4] = target: T1, human orexin 2 receptors; test: Radioligand binding assay ([3H]-SB649868 competition), hOx2R; settings: competition with about 1 nM [3H]-SB649868; CHO or HEK cell membranes expressing human orexin 2 receptor; read-out: binding hOx2R Kd
How it was run: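 Membranes were incubated 1 h at room temperature in 10 mM HEPES pH 7.5 with 0.5% BSA, 5 mM MgCl2, 1 mM CaCl2 and 0.05% Tween, with about 1 nM [3H]-SB649868 and test compounds in triplicate. Non-specific binding was defined with 10 μM almorexant, and bound radioactivity was counted.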

Structure (SMILES) | Ki (human orexin 2 receptors [1]) [nM] | Kd (human orexin 1 receptors [2]) [nM] | Ki (human orexin 1 receptors [3]) [nM] | Kd (human orexin 2 receptors [4]) [nM]
Cc1cc(C)nc(N2CCC3(CCCN(Cc4cccc(-c5ncc(C)o5)c4)C3=O)CC2)n1 [Example 36, 9-(4,6-dimethylpyrimidin-2-yl)-2-(3-(5-methyloxazol-2-yl)benzyl)-2,9-diazaspiro[5.5]undecan-1-one] | 38 | 431 | 714 | 89
Cc1cc(C)nc(N2CCC3(CCCN(Cc4cccc5c4OCCO5)C3=O)CC2)n1 [Example 20, 2-((2,3-dihydrobenzo[b][1,4]dioxin-5-yl)methyl)-9-(4,6-dimethylpyrimidin-2-yl)-2,9-diazaspiro[5.5]undecan-1-one] | 42 | 8550 | 2530 | 211
COc1ccnc(N2CCC3(CCCN(Cc4ccccc4-c4nc(C)no4)C3=O)CC2)n1 [Example 114, 9-(4-methoxypyrimidin-2-yl)-2-(2-(3-methyl-1,2,4-oxadiazol-5-yl)benzyl)-2,9-diazaspiro[5.5]undecan-1-one] | 30 | 2140 | 1530 | 231
